Experiment [1] concerns Scenedesmus acutus. Put plainly: Growth inhibition of Scenedesmus acutus assessed as packed cell volume per ml of algal culture volume after 16 hr (reference value: 3.8 ul pcv/ml). In kind it is functional.
The subject of experiment [2] is Scenedesmus acutus. Kind of experiment: Phytotoxicity against Scenedesmus acutus assessed as inhibition of chlorophyll content after 16 hr by spectrophotometry relative to untreated control. In kind it is functional.

On to `O=C1C2=C(CCCC2)C(=O)N1c1ccc(Br)cc1F`, for which, in the experiment on Scenedesmus acutus [1], the Activity was found to be 2.1 uL/ml. In the experiment with Scenedesmus acutus [2], the “inhibition (INH)” value turned out to be 79%.

Consider `CNc1ncnc2nc(-c3ccc(Cl)cc3)nn12`, for which the Activity with Scenedesmus acutus [1] worked out at 3.7 uL/ml. Further, the “inhibition (INH)” value with Scenedesmus acutus [2] amounted to 8.07%.

For `Nc1ncnc2nc(-c3ccc(Cl)cc3F)nn12`, the Activity in the experiment on Scenedesmus acutus [1] is recorded as 3.1 uL/ml. Further, in the experiment with Scenedesmus acutus [2], the “inhibition (INH)” value came out at 32.61%.

On to `NC1=NC=NC2=NC(c3ccc(Cl)cc3F)NN12` (stereo not given), for which the Activity with Scenedesmus acutus [1] came out at 3.4 uL/ml. In the experiment on Scenedesmus acutus [2], the “inhibition (INH)” value was determined as 10.39%.

Consider `Nc1ncnc2nc(-c3ccc(Cl)cc3)nn12`, for which the Activity in the experiment with Scenedesmus acutus [1] is 3.2 uL/ml. Further, in the experiment on Scenedesmus acutus [2], the “inhibition (INH)” value is 25.55%.

In the case of `NC1=NC=NC2=NC(c3ccc(Cl)cc3)NN12` (stereo not given), the Activity in the experiment with Scenedesmus acutus [1] came out at 3.6 uL/ml. In addition, the “inhibition (INH)” value in the experiment with Scenedesmus acutus [2] amounted to 4.81%.

For the compound `CCN/C(=N\C=N\C#N)N/N=C(\C)c1ccccc1`, the Activity in the experiment with Scenedesmus acutus [1] worked out at 3.6 uL/ml. The “inhibition (INH)” value in the experiment with Scenedesmus acutus [2] was 27.93%.

For `CN/C(=N\C=N\C#N)N/N=C/c1ccccc1`, in the experiment with Scenedesmus acutus [1], the Activity is on record as 3.3 uL/ml. Also, the “inhibition (INH)” value in the experiment with Scenedesmus acutus [2] came out at 32.97%.

Consider `CN/C(=N\C=N\C#N)N/N=C(\C)c1ccccc1`, for which the Activity in the experiment on Scenedesmus acutus [1] is reported as 3.8 uL/ml. In addition, in the experiment on Scenedesmus acutus [2], the “inhibition (INH)” value was determined as 6.92%.

Regarding `C/C(=N\N/C(N)=N/C=N/C#N)c1ccc(Cl)cc1`, the Activity in the experiment with Scenedesmus acutus [1] is recorded as 3.4 uL/ml. For the same compound, the “inhibition (INH)” value in the experiment with Scenedesmus acutus [2] was 37.18%.

In the case of `COc1ccc(/C=N/N/C(N)=N/C=N/C#N)cc1`, in the experiment with Scenedesmus acutus [1], the Activity stood at 3 uL/ml. In addition, the “inhibition (INH)” value with Scenedesmus acutus [2] turned out to be 28.77%.

Take `N#C/N=C/N=C(\N)N/N=C/c1ccc(Cl)cc1F`: the Activity with Scenedesmus acutus [1] is on record as 3 uL/ml. Further, the “inhibition (INH)” value with Scenedesmus acutus [2] stood at 41.65%.

`N#C/N=C/N=C(\N)N/N=C/c1ccc(Cl)cc1`: in the experiment on Scenedesmus acutus [1], the Activity is reported as 3.1 uL/ml. Also, the “inhibition (INH)” value in the experiment on Scenedesmus acutus [2] was found to be 29.21%.

As for `O=C1C2=C(CCCC2)C(=O)N1c1ccc(Cl)cc1` [CHLOROPHTHALIUM], in the experiment with Scenedesmus acutus [1], the Activity is reported as 2.5 uL/ml. Besides, in the experiment on Scenedesmus acutus [2], the “inhibition (INH)” value is 2.34%.

For the compound `CCOc1cc(Oc2ccc(C(F)(F)F)cc2Cl)ccc1[N+](=O)[O-]` [OXYFLUORFEN], the Activity in the experiment on Scenedesmus acutus [1] was 1.4 uL/ml. For the same compound, in the experiment with Scenedesmus acutus [2], the “inhibition (INH)” value is 2.24%.

The record behind these values is ChEMBL document CHEMBL3045801, “Synthesis of 1, 2, 4-Triazolo[1, 5-a]-1, 3, 5-triazine Derivatives for Phytotoxic Activity” (J Pestic Sci, 1995).
